In brackets after ≈: the same amount, converted by molar mass. Several values for one entry are separate records, joined by “and”; a condition that tells them apart may be missing. Equal values may be shown once. Read-outs that look alike come from different tables or passages of the source. One block for each compound: values may come before it. Square brackets hold non-standard residues; d marks the D form. Peptide text beside a SMILES is read from it. Bip(4'-Cl) = N[C@@H](Cc1ccc(-c2ccc(Cl)cc2)cc1)C(=O)O; Bip = N[C@@H](Cc1ccc(-c2ccccc2)cc1)C(=O)O; Phe(4-Me) = Cc1ccc(C[C@H](N)C(=O)O)cc1
What was measured:
Assay in all cases: microbe, parasite or virus in culture
[1] = test system: Mupirocin-susceptible MRSA ATCC-BAA-1756 (USA300); format: cell-based, Staphylococcus aureus
Description: (§1) The MICs of test compounds were determined using the microdilution method from the Clinical and Laboratory Standards Institute (CLSI) guidelines (Clinical and Laboratory Standards Institute. Methods for dilution antimicrobial susceptibility tests for bacteria that grow aerobically; approved standard—ninth edition. Document M07-A9. Vol. 32 No. 2. Wayne, Pa.: CLSI; 2012). Briefly, bacteria were grown fresh from frozen stock in Mueller Hinton 2 (MH2) agar at 37° C. After an overnight incubation, 5 bacteria colonies were selected to grow in cation-adjusted MH2 broth in a shaking incubator (140 RPM) at 37° C. Cells were grown to an optical density (OD600) of 0.15-0.16 determined using a spectrophotometer (Molecular Devices Spectra Max Plus), which corresponds to ˜1×10^8 CFU/mL. Test compounds were constituted into 4 mM DMSO stock solutions and then subjected to 2-fold serial dilution in a 96-well plate with concentrations ranging from 100 to 0.195 μM in duplicates. […] of microbial culture containing ˜1×10^6 CFU/mL of microbes in the respective broths was introduced into each well containing 50 μL of compound solution. After an overnight incubation at 35° C., (220 RPM), OD600 measurements were conducted using the microplate spectrophotometer. The MIC was defined as the lowest antibiotic or compound concentration (μM) required to inhibit bacteria growth.
(§2) The 11th well was used as the growth control well (medium with bacterial inoculums, no antibacterial) while the 12th well was the sterility control well (medium only).

[2] = test system: Mupirocin-susceptible MRSA ATCC-33592 (ST239); format: cell-based, Staphylococcus aureus
Description: as §1, §2

[3] = test system: Mupirocin-susceptible MRSA ATCC-BAA-1681 (USA100); format: cell-based, Staphylococcus aureus
Description: as §1, §2

[4] = test system: Mupirocin-susceptible MRSA ATCC-BAA-1754 (ST45); format: cell-based, Staphylococcus aureus
Description: as §1, §2

[5] = test system: Mupirocin-susceptible MRSA ATCC-BAA-2762 (EMRSA15, ST22); format: cell-based, Staphylococcus aureus
Description: as §1, §2

[6] = test system: Mupirocin-susceptible MRSA ATCC-BAA-1707 (USA400); format: cell-based, Staphylococcus aureus
Description: as §1, §2

[7] = test system: Mupirocin-susceptible MRSA ATCC-700699 (VISA); format: cell-based, Staphylococcus aureus
Description: as §1, §2

[8] = test system: Mupirocin-resistant MRSA ATCC-BAA-1708; format: cell-based, Staphylococcus aureus
Description: as §1, §2

[9] = test system: Mupirocin-resistant MRSA ATCC-BAA-1750 (USA200); format: cell-based, Staphylococcus aureus
Description: as §1, §2

[10] = test system: Mupirocin-resistant MRSA ATCC-BAA-1556; format: cell-based, Staphylococcus aureus
Description: as §1, §2

[11] = test system: S. aureus (ATCC BAA-1556); settings: Staphylococcus aureus, ATCCBAA1556, 24 h, read-out: Mean MIC
Description: S. aureus (BAA-1556) was from ATCC. Mupirocin (Cat # M2955) was purchased from TCI chemicals (India) Pvt. […] Ltd, India, Cation adjusted Mueller Hinton broth (CAMHB) and Mueller Hinton Agar (MHA) (Cat # M1657) were from HiMedia Laboratories Pvt. Ltd, India.
The MIC assay was done based on CLSI guidelines in a microtitre plate format (1, 2). Preparation and dilution of Test Item (TI) stock solutions: A 1280 μg/ml stock of Compound 34 was prepared by dissolving 1.28 mg in 1.0 ml of sterile water to obtain the Master Stock (MS) solution. The MS solution was diluted 2-fold to obtain a series of Working Stock (WS) solutions (Table 7). The final concentration of solvent in the assay was 2.5% and the assay volume was […].
Preparing the inoculum: One day before initiation of experiment, an isolated colony of S. aureus (ATCC BAA-1556) was inoculated into sterile CAMHB and incubated at 37° C. to exponential phase. After incubation, the turbidity was adjusted to that of a 0.5 McFarland Standard (approximately equivalent to 1.0×10^8 CFU/ml) and diluted to ˜1.0×10^6 CFU/ml.
MIC Assay: The MIC assay was performed in a 96 well microtitre plate in a total assay volume of 100 μl (Table 7). Each well containing different concentrations of test compound (concentration range between 0.015625 and 16.0 μg/ml) was inoculated with 50 μl of bacterial suspension (prepared from the inoculum grown overnight and adjusted approximately to 5.0×10^5 CFU/ml) along with culture control (CC, culture in broth), broth control (BC, broth only), and vehicle control (VC, 2.5% solvent in broth plus culture). The plate was incubated at 37° C. for 24 hr and turbidity was measured spectrophotometrically (Absorbance microplate reader, BioTek® India, ELx800™) at 600 nm and visually. The experiment was done in duplicates. The inoculum was also plated for enumeration of bacteria. The MIC was defined as the lowest concentration of test compound that prevented bacterial growth (lack of turbidity by OD at 600 nm and visual inspection relative to no growth control).

[12] = Mupirocin-resistant MRSA ATCC-BAA-1556, cation-adjusted MH2 broth, overnight 35° C., OD600, read-out: MIC

Structure (SMILES): N=C(N)NCCCCNC(=O)[C@@H](Cc1ccc(-c2ccccc2)cc1)NC(=O)[C@@H](CCCNC(=N)N)NC(=O)[C@H](N)Cc1ccc(-c2ccccc2)cc1 [Compound 2]
- MIC ([1]; ATCC-BAA-1756, read-out: MIC): 6.25 µM (≈ 4.58 µg/mL)
- MIC ([2]; ATCC-33592, read-out: MIC): 6.25 µM (≈ 4.58 µg/mL)
- MIC ([3]; ATCC-BAA-1681, read-out: MIC): 6.25 µM (≈ 4.58 µg/mL)
- MIC ([4]; ATCC-BAA-1754, read-out: MIC): 6.25 µM (≈ 4.58 µg/mL)
- MIC ([5]; ATCC-BAA-2762, read-out: MIC): 6.25 µM (≈ 4.58 µg/mL)
- MIC ([6]; ATCC-BAA-1707, read-out: MIC): 6.25 µM (≈ 4.58 µg/mL)
- MIC ([7]; Mupirocin-susceptible MRSA ATCC-700699 (VISA), read-out: MIC): 6.25 µM (≈ 4.58 µg/mL)
- MIC ([8]; ATCC-BAA-1708, read-out: MIC): 6.25 µM (≈ 4.58 µg/mL)
- MIC ([9]; ATCC-BAA-1750, read-out: MIC): 6.25 µM (≈ 4.58 µg/mL)
- MIC [10, 12]: 12.5 µM (≈ 9.16 µg/mL)

Structure (SMILES): N=C(N)NCCC[C@H](NC(=O)[C@H](Cc1ccc(-c2ccc(Cl)cc2)cc1)NC(=O)[C@H](CCCNC(=N)N)NC(=O)[C@@H](N)Cc1ccc(-c2ccc(Cl)cc2)cc1)C(N)=O [Compound 33] (H-[Bip(4'-Cl)]R[Bip(4'-Cl)]R-NH2)
- MIC ([1]; ATCC-BAA-1756, read-out: MIC): 3.125 µM (≈ 2.64 µg/mL)
- MIC ([2]; ATCC-33592, read-out: MIC): 3.125 µM (≈ 2.64 µg/mL)
- MIC ([3]; ATCC-BAA-1681, read-out: MIC): 3.125 µM (≈ 2.64 µg/mL)
- MIC ([4]; ATCC-BAA-1754, read-out: MIC): 3.125 µM (≈ 2.64 µg/mL)
- MIC ([5]; ATCC-BAA-2762, read-out: MIC): 3.125 µM (≈ 2.64 µg/mL)
- MIC ([6]; ATCC-BAA-1707, read-out: MIC): 3.125 µM (≈ 2.64 µg/mL)
- MIC ([7]; ATCC-700699, read-out: MIC): 3.125 µM (≈ 2.64 µg/mL)
- MIC ([8]; ATCC-BAA-1708, read-out: MIC): 1.56 µM (≈ 1.32 µg/mL)
- MIC ([9]; ATCC-BAA-1750, read-out: MIC): 1.56 µM (≈ 1.32 µg/mL)
- MIC [10, 12]: 3.125 µM (≈ 2.64 µg/mL)
- improvement of bioactivity (lower MIC values) as compared to Compound 2 ([10]; against Mupirocin-resistant MRSA strains): about 4 fold

Structure (SMILES): C=C[C@]1(C)C[C@@H](OC(=O)CS[C@@H]2C[C@H]3CC[C@@H](C2)N3C)[C@]2(C)[C@H](C)CC[C@]3(CCC(=O)[C@H]32)[C@@H](C)[C@@H]1O [Retapamulin]
- MIC ([1]; Staphylococcus aureus): ≤ 0.2 µM
- MIC ([2]; Staphylococcus aureus): ≤ 0.2 µM
- MIC ([3]; Staphylococcus aureus): ≤ 0.2 µM
- MIC ([4]; Staphylococcus aureus): ≤ 0.2 µM
- MIC ([5]; Staphylococcus aureus): ≤ 0.2 µM
- MIC ([6]; Staphylococcus aureus): ≤ 0.2 µM
- MIC ([7]; Staphylococcus aureus): ≤ 0.2 µM
- MIC ([8]; Staphylococcus aureus): ≤ 0.2 µM
- MIC ([9]; Staphylococcus aureus): ≤ 0.2 µM
- MIC ([10]; Staphylococcus aureus): ≤ 0.2 µM

Structure (SMILES): Cc1ccc(C[C@H](N)C(=O)N[C@@H](CCCNC(=N)N)C(=O)N[C@@H](Cc2ccc(-c3ccccc3)cc2)C(=O)N[C@@H](CCCNC(=N)N)C(N)=O)cc1 [Compound 7] (H-[Phe(4-Me)]R[Bip]R-NH2)
- MIC ([10]; ATCC-BAA-1556, read-out: MIC): 100 µM (≈ 71.4 µg/mL)

Now from value to compound:

- MIC [11]: > 16 µg/mL and > 32 µM
- MIC ([1]; Staphylococcus aureus, Mupirocin-susceptible MRSA ATCC-BAA-1756 (USA300), read-out: MIC): ≤ 0.2 µM
- MIC ([2]; Staphylococcus aureus, Mupirocin-susceptible MRSA ATCC-33592 (ST239), read-out: MIC): ≤ 0.2 µM
- MIC ([3]; Staphylococcus aureus, Mupirocin-susceptible MRSA ATCC-BAA-1681 (USA100), read-out: MIC): ≤ 0.2 µM
- MIC ([4]; Staphylococcus aureus, Mupirocin-susceptible MRSA ATCC-BAA-1754 (ST45), read-out: MIC): ≤ 0.2 µM
- MIC ([5]; Staphylococcus aureus, Mupirocin-susceptible MRSA ATCC-BAA-2762 (EMRSA15, ST22), read-out: MIC): ≤ 0.2 µM
- MIC ([6]; Staphylococcus aureus, Mupirocin-susceptible MRSA ATCC-BAA-1707 (USA400), read-out: MIC): ≤ 0.2 µM
- MIC ([7]; Staphylococcus aureus, Mupirocin-susceptible MRSA ATCC-700699 (VISA), read-out: MIC): ≤ 0.2 µM
- MIC ([8]; Staphylococcus aureus, Mupirocin-resistant MRSA ATCC-BAA-1708, read-out: MIC): > 100 µM
- MIC ([9]; Staphylococcus aureus, Mupirocin-resistant MRSA ATCC-BAA-1750 (USA200), read-out: MIC): 25 µM (≈ 12.5 µg/mL)
- MIC ([10]; Staphylococcus aureus, Mupirocin-resistant MRSA ATCC-BAA-1556, cation-adjusted MH2 broth, overnight 35° C., OD600, read-out: MIC): > 100 µM
Structure (SMILES): C/C(=C\C(=O)OCCCCCCCCC(=O)O)C[C@@H]1OC[C@H](C[C@@H]2O[C@H]2[C@@H](C)[C@H](C)O)[C@@H](O)[C@H]1O [Mupirocin]

- MIC ([10]; ATCC-BAA-1556, read-out: MIC): >100 µM
Structure (SMILES): N=C(N)NCCC[C@@H](NC(=O)[C@@H](Cc1ccc(-c2ccc(Cl)cc2)cc1)NC(=O)[C@H](N)CCCNC(N)=O)C(N)=O [Compound 36]

From patent publication US20200157144A1, “ANTIMICROBIAL PEPTIDOMIMETICS” (priority 2017, published 2020)
